According to the NIST ThermoML archive (doi:10.1021/je3009304):
Numbers after ± are expanded uncertainties.

Settings: Liquid

C=C(F)C(F)(F)F [2,3,3,3-tetrafluoro-1-propene]
Settings	mass density [kg/m3]
217.44 K, 14681 kPa, isochoric method	1363.7 ± 1.3
218.27 K, 962.6 kPa, isochoric method	1333.8 ± 1.3
219.23 K, 2020.3 kPa, isochoric method	1333.7 ± 1.3
220.22 K, 3106.5 kPa, isochoric method	1333.6 ± 1.3
221.18 K, 4140.3 kPa, isochoric method	1333.5 ± 1.3
221.97 K, 20077 kPa, isochoric method	1363.2 ± 1.3
222.06 K, 5097 kPa, isochoric method	1333.4 ± 1.3
226.65 K, 10087 kPa, isochoric method	1332.9 ± 1.3
226.93 K, 25988 kPa, isochoric method	1362.7 ± 1.3
230.27 K, 29902 kPa, isochoric method	1362.4 ± 1.3
231.25 K, 15017 kPa, isochoric method	1332.4 ± 1.3
231.72 K, 1001.1 kPa, isochoric method	1298.5 ± 1.3
232.84 K, 2093.9 kPa, isochoric method	1298.4 ± 1.3
233.76 K, 2987 kPa, isochoric method	1298.2 ± 1.3
234.77 K, 35121 kPa, isochoric method	1361.9 ± 1.3
234.92 K, 4113.3 kPa, isochoric method	1298.2 ± 1.3
236.02 K, 20027 kPa, isochoric method	1332 ± 1.3
236.13 K, 5205.1 kPa, isochoric method	1298 ± 1.3
240.49 K, 24777 kPa, isochoric method	1331.5 ± 1.3
241.06 K, 10038 kPa, isochoric method	1297.5 ± 1.3
245.59 K, 30165 kPa, isochoric method	1331 ± 1.3
246.22 K, 14993 kPa, isochoric method	1297.1 ± 1.3
250.28 K, 35113 kPa, isochoric method	1330.6 ± 1.3
251.43 K, 19983 kPa, isochoric method	1296.6 ± 1.3
251.62 K, 971.2 kPa, isochoric method	1243.5 ± 1.2
252.83 K, 1949.3 kPa, isochoric method	1243.4 ± 1.2
254.25 K, 3101.8 kPa, isochoric method	1243.3 ± 1.2
254.96 K, 39964 kPa, isochoric method	1330.1 ± 1.3
255.48 K, 4096.7 kPa, isochoric method	1243.2 ± 1.2
256.7 K, 5077.8 kPa, isochoric method	1243.1 ± 1.2
256.72 K, 25008 kPa, isochoric method	1296.1 ± 1.3
261.89 K, 29860 kPa, isochoric method	1295.6 ± 1.3
262.98 K, 10262 kPa, isochoric method	1242.5 ± 1.2
267.49 K, 35084 kPa, isochoric method	1295.1 ± 1.3
269.01 K, 15092 kPa, isochoric method	1242 ± 1.2
269.39 K, 1033.4 kPa, isochoric method	1191.1 ± 1.2
270.88 K, 2044.5 kPa, isochoric method	1190.9 ± 1.2
272.34 K, 3041.1 kPa, isochoric method	1190.8 ± 1.2
272.52 K, 39731 kPa, isochoric method	1294.7 ± 1.3
273.79 K, 4025.5 kPa, isochoric method	1190.7 ± 1.2
275.28 K, 5036.3 kPa, isochoric method	1190.6 ± 1.2
275.31 K, 20033 kPa, isochoric method	1241.4 ± 1.2
282.03 K, 25427 kPa, isochoric method	1240.8 ± 1.2
282.83 K, 10183 kPa, isochoric method	1189.9 ± 1.2
282.95 K, 1036 kPa, isochoric method	1147.5 ± 1.2
284.62 K, 2015.3 kPa, isochoric method	1147.4 ± 1.2
286.31 K, 3030.5 kPa, isochoric method	1147.2 ± 1.2
287.71 K, 29892 kPa, isochoric method	1240.4 ± 1.2
287.89 K, 3962.5 kPa, isochoric method	1147.1 ± 1.2
289.95 K, 15007 kPa, isochoric method	1189.4 ± 1.2
289.99 K, 5188 kPa, isochoric method	1146.9 ± 1.2
294.1 K, 34879 kPa, isochoric method	1239.8 ± 1.2
297.11 K, 19748 kPa, isochoric method	1188.8 ± 1.2
297.15 K, 1034.7 kPa, isochoric method	1097.2 ± 1.2
298.15 K, 2000 kPa, Pycnometric method	1101.34 ± 1
298.15 K, 9991.7 kPa, isochoric method	1146.3 ± 1.2
299.15 K, 2029.1 kPa, isochoric method	1097.1 ± 1.2
300.61 K, 39892 kPa, isochoric method	1239.3 ± 1.2
301.16 K, 3031.3 kPa, isochoric method	1096.9 ± 1.2
303.02 K, 3977.9 kPa, isochoric method	1096.8 ± 1.2
304.9 K, 24929 kPa, isochoric method	1188.2 ± 1.2
305.47 K, 5182.3 kPa, isochoric method	1096.6 ± 1.2
306.32 K, 14776 kPa, isochoric method	1145.7 ± 1.2
312.45 K, 29920 kPa, isochoric method	1187.5 ± 1.2
315.08 K, 9982 kPa, isochoric method	1095.9 ± 1.2
315.09 K, 19876 kPa, isochoric method	1145 ± 1.2
315.95 K, 2247.5 kPa, isochoric method	1032.9 ± 1.2
317.45 K, 2859.3 kPa, isochoric method	1032.8 ± 1.2
320.1 K, 34906 kPa, isochoric method	1187 ± 1.2
320.32 K, 4014.4 kPa, isochoric method	1032.6 ± 1.2
322.67 K, 4967.1 kPa, isochoric method	1032.4 ± 1.2
323.87 K, 24958 kPa, isochoric method	1144.4 ± 1.2
325.07 K, 14981 kPa, isochoric method	1095.2 ± 1.2
325.16 K, 5973.9 kPa, isochoric method	1032.3 ± 1.2
327.9 K, 39962 kPa, isochoric method	1186.4 ± 1.2
332.6 K, 29948 kPa, isochoric method	1143.7 ± 1.2
335.17 K, 2008.9 kPa, isochoric method	935 ± 1.2
335.17 K, 19964 kPa, isochoric method	1094.5 ± 1.2
335.18 K, 10007 kPa, isochoric method	1031.6 ± 1.2
338.63 K, 3007.2 kPa, isochoric method	934.8 ± 1.2
341.49 K, 35032 kPa, isochoric method	1143.1 ± 1.2
342.03 K, 3976.9 kPa, isochoric method	934.7 ± 1.2
345.34 K, 25002 kPa, isochoric method	1093.8 ± 1.2
345.42 K, 4963.5 kPa, isochoric method	934.5 ± 1.2
347.2 K, 14893 kPa, isochoric method	1030.8 ± 1.2
350.33 K, 40033 kPa, isochoric method	1142.5 ± 1.2
353.14 K, 28869 kPa, isochoric method	1093.3 ± 1.2
353.15 K, 7224.7 kPa, isochoric method	934 ± 1.2
353.15 K, 17361 kPa, isochoric method	1030.5 ± 1.2

FC(F)=C(F)C(F)(F)F [hexafluoropropene]
Settings	mass density [kg/m3]
208.66 K, 4440.7 kPa, isochoric method	1666.3 ± 1.6
212.77 K, 9785.5 kPa, isochoric method	1665.7 ± 1.6
217.15 K, 15655 kPa, isochoric method	1665.1 ± 1.6
220.5 K, 19878 kPa, isochoric method	1664.7 ± 1.6
220.7 K, 1017.1 kPa, isochoric method	1618 ± 1.6
221.58 K, 1995.2 kPa, isochoric method	1617.9 ± 1.6
222.5 K, 3032.3 kPa, isochoric method	1617.8 ± 1.6
223.26 K, 3878.8 kPa, isochoric method	1617.7 ± 1.6
224.31 K, 5176.5 kPa, isochoric method	1617.5 ± 1.6
224.32 K, 25024 kPa, isochoric method	1664.2 ± 1.6
228.25 K, 29978 kPa, isochoric method	1663.7 ± 1.6
228.76 K, 10104 kPa, isochoric method	1616.9 ± 1.6
232.02 K, 34664 kPa, isochoric method	1663.2 ± 1.6
233.17 K, 15012 kPa, isochoric method	1616.4 ± 1.6
236.26 K, 39771 kPa, isochoric method	1662.7 ± 1.6
237.66 K, 1075 kPa, isochoric method	1560.8 ± 1.6
237.67 K, 20020 kPa, isochoric method	1615.8 ± 1.6
238.62 K, 2000 kPa, isochoric method	1560.7 ± 1.6
239.74 K, 3075.4 kPa, isochoric method	1560.5 ± 1.6
240.8 K, 4091.1 kPa, isochoric method	1560.4 ± 1.6
241.91 K, 5150.8 kPa, isochoric method	1560.2 ± 1.6
241.95 K, 25034 kPa, isochoric method	1615.3 ± 1.6
247.02 K, 10041 kPa, isochoric method	1559.6 ± 1.6
247.52 K, 30945 kPa, isochoric method	1614.6 ± 1.6
251.36 K, 35209 kPa, isochoric method	1614.2 ± 1.6
252.41 K, 1004.8 kPa, isochoric method	1507.5 ± 1.6
252.51 K, 15276 kPa, isochoric method	1559 ± 1.6
253.78 K, 2142.1 kPa, isochoric method	1507.3 ± 1.6
254.97 K, 3117.5 kPa, isochoric method	1507.2 ± 1.6
255.93 K, 40226 kPa, isochoric method	1613.6 ± 1.6
256.1 K, 4061.6 kPa, isochoric method	1507 ± 1.6
257.5 K, 5226.1 kPa, isochoric method	1506.9 ± 1.6
257.54 K, 20028 kPa, isochoric method	1558.4 ± 1.6
262.84 K, 25067 kPa, isochoric method	1557.8 ± 1.6
268.15 K, 30042 kPa, isochoric method	1557.2 ± 1.6
269.46 K, 1140.2 kPa, isochoric method	1444.5 ± 1.6
269.51 K, 15216 kPa, isochoric method	1506 ± 1.6
270.71 K, 2007.3 kPa, isochoric method	1444.3 ± 1.6
272.14 K, 2994.8 kPa, isochoric method	1444.2 ± 1.6
273.5 K, 34978 kPa, isochoric method	1556.7 ± 1.6
273.87 K, 4188.8 kPa, isochoric method	1444 ± 1.6
275.36 K, 5220.9 kPa, isochoric method	1443.8 ± 1.6
275.38 K, 20012 kPa, isochoric method	1505.4 ± 1.6
278.75 K, 39847 kPa, isochoric method	1556.1 ± 1.6
281.62 K, 25020 kPa, isochoric method	1504.3 ± 1.6
282.66 K, 10250 kPa, isochoric method	1443.1 ± 1.6
282.84 K, 1039.3 kPa, isochoric method	1388.2 ± 1.5
284.56 K, 2050.1 kPa, isochoric method	1388.1 ± 1.5
286.25 K, 2995.1 kPa, isochoric method	1387.9 ± 1.5
287.65 K, 30072 kPa, isochoric method	1504.2 ± 1.6
287.98 K, 4010.4 kPa, isochoric method	1387.7 ± 1.5
289.44 K, 14959 kPa, isochoric method	1442.4 ± 1.6
289.66 K, 4997.4 kPa, isochoric method	1387.6 ± 1.5
294.12 K, 35270 kPa, isochoric method	1503.5 ± 1.6
296.97 K, 20036 kPa, isochoric method	1441.7 ± 1.6
297.23 K, 942.2 kPa, isochoric method	1322 ± 1.5
298.15 K, 2000 kPa, Pycnometric method	1326.6 ± 1.3
298.15 K, 10003 kPa, isochoric method	1386.8 ± 1.5
299.3 K, 1958.7 kPa, isochoric method	1321.8 ± 1.5
300.38 K, 40273 kPa, isochoric method	1502.9 ± 1.6
301.47 K, 3021.5 kPa, isochoric method	1321.6 ± 1.5
303.44 K, 3963.5 kPa, isochoric method	1321.4 ± 1.5
304.43 K, 25120 kPa, isochoric method	1441 ± 1.6
305.51 K, 4983.5 kPa, isochoric method	1321.2 ± 1.5
307 K, 15256 kPa, isochoric method	1385.9 ± 1.5
311.59 K, 29972 kPa, isochoric method	1440.3 ± 1.6
315.78 K, 2033.9 kPa, isochoric method	1237.1 ± 1.5
315.78 K, 9999.6 kPa, isochoric method	1320.4 ± 1.5
315.78 K, 20405 kPa, isochoric method	1385.1 ± 1.5
317.54 K, 2708.8 kPa, isochoric method	1237 ± 1.5
319.05 K, 35044 kPa, isochoric method	1439.6 ± 1.6
320.92 K, 3993.8 kPa, isochoric method	1236.7 ± 1.5
323.55 K, 4999.4 kPa, isochoric method	1236.5 ± 1.5
324.09 K, 25251 kPa, isochoric method	1384.4 ± 1.5
326.52 K, 40028 kPa, isochoric method	1438.9 ± 1.6
326.95 K, 15464 kPa, isochoric method	1319.4 ± 1.5
332.97 K, 30410 kPa, isochoric method	1383.6 ± 1.5
335.66 K, 19726 kPa, isochoric method	1318.7 ± 1.5
336.51 K, 9979.8 kPa, isochoric method	1235.5 ± 1.5
340.74 K, 34883 kPa, isochoric method	1382.9 ± 1.5
345.95 K, 24723 kPa, isochoric method	1317.8 ± 1.5
352.67 K, 41719 kPa, isochoric method	1381.9 ± 1.5
353.15 K, 16419 kPa, isochoric method	1234.2 ± 1.5
353.15 K, 28219 kPa, isochoric method	1317.2 ± 1.5
